Results taken from the supplement of paper PMC8988213.
Structures can show the parent of a compound that is named as a salt.

Legend:
[1] = test system: ID188 patient-derived PDAC 2D line (pre-FOLFIRINOX); assay: normalised area under dose-response curve (viability relative to DMSO, 7 doses up to 10 µM) (fraction (AUC)); higher = less sensitive (more viability retained); details: 72 h; top dose: 10 µM
Summary of the method: (§1)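 2D PDAC cells grown out from patient-derived organoids were robotically seeded in 96-well plates at 1,500–3,000 cells/well and kept overnight at 37°C in 5% CO2. Compounds from a SelleckChem library were then applied for 72 h at seven concentrations, made as a 3-fold dilution series with 10 µM as the highest. CellTiter-Glo luminescence was measured 10 min later. Viability was normalised to control wells, and the GRmetrics R package was used to derive the area under the dose-response curve.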

[2] = test system: ID211 patient-derived PDAC 2D line (post-FOLFIRINOX); assay: as above; details: 72 h; top dose: 10 µM
Summary of the method: as §1

| Structure (SMILES) | normalised area under dose-response curve [1] | normalised area under dose-response curve [2] |
| --- | --- | --- |
| O=C(O)CCCCC(CCSCc1ccccc1)SCc1ccccc1 (configuration not stated) [CPI-613] | 0.897 | 0.902 |
| Cc1cc2c(C(=O)NC[C@H](C)c3ccccc3)c(O)c(O)cc2c(O)c1-c1c(C)cc2c(C(=O)NC[C@H](C)c3ccccc3)c(O)c(O)cc2c1O [Sabutoclax] | 0.822 | 0.909 |
| Cn1cc(C2=C(c3ccc(Cl)cc3Cl)C(=O)NC2=O)c2ccccc21 | 0.813 | 0.787 |
| C[C@@H](Oc1cc(-n2cnc3ccc(CN4CCN(C)CC4)cc32)sc1C(N)=O)c1ccccc1C(F)(F)F | 0.687 | 0.726 |
| CONC(=O)c1ccccc1Nc1cc(Nc2cc(C)nn2C(C)C)ncc1Cl | 0.812 | 0.844 |
| CCCc1cc(C)[nH]c(=O)c1CNC(=O)c1cc(-c2ccc(N3CCN(C(C)C)CC3)nc2)cc2c1cnn2C(C)C [UNC1999] | 0.932 | 0.786 |
| O=c1cc(-c2ccc(O)c(O)c2)oc2cc(O)cc(O)c12 [Luteolin] | 0.82 | 0.754 |
| CS(=O)(=O)c1ccc(-c2cnc(NCc3ccco3)n3cnnc23)cc1 [EED226] | 0.955 | 0.846 |
| Nc1ncn([C@@H]2O[C@H](CO)[C@@H](O)[C@H]2O)c(=O)n1 [Azacitidine] | 0.855 | 0.977 |
| Cc1cccc(-c2[nH]c(CNc3ccccc3F)nc2-c2ccc3ncnn3c2)n1 [Vactosertib (TEW-7197)] | 0.931 | 0.871 |
| COc1ccccc1S(=O)(=O)Nc1ccc2c(c1)CN(C)C(=O)N2 | 0.921 | 0.753 |
| O=C(c1ccc(C(=O)N2CCC(N3CCCC3)CC2)c(Nc2ccccc2)c1)N1CCC(N2CCCC2)CC1 [UNC1215] | 0.931 | 0.951 |
| O=C1NC(=O)C(c2cnc3ccccn23)=C1c1cn2c3c(cc(F)cc13)CN(C(=O)N1CCCCC1)CC2 | 1.04 | 0.259 |
| CC(C)Nc1cc(-c2c[nH]c(C(=O)N[C@H](CO)c3cccc(Cl)c3)c2)c(Cl)cn1 | 0.881 | 0.687 |
| COc1cc(C(C)=O)ccc1O [Apocynin] | 0.915 | 0.816 |
| C=CC(=O)N1C/C(=C\c2ccc([N+](=O)[O-])cc2)C(=O)/C(=C/c2ccc([N+](=O)[O-])cc2)C1 [b-AP15] | 0.504 | 0.671 |
| Oc1ccc(-c2nc(-c3ccc(F)cc3)c(-c3ccncc3)[nH]2)cc1 | 0.95 | 1 |
| Cc1c(CN2CCC(Nc3ncnc4sc(CC(F)(F)F)cc34)CC2)ccc2c1cc(C#N)n2Cc1cn[nH]c1 [MI-503] | 0.871 | 0.805 |
| COc1cc2nccc(Oc3ccc(NC(=O)C4(C(=O)Nc5ccc(F)cc5)CC4)cc3)c2cc1OC [Cabozantinib malate (XL184)] | 0.585 | 0.78 |
| NC[C@@](O)(c1ccc(Cl)cc1)c1ccc(-c2cn[nH]c2)cc1 | 1.03 | 0.981 |
| O=c1[nH]nc(Sc2ncc([N+](=O)[O-])s2)n1-c1ccc2c(c1)OCCO2 [BI-78D3] | 0.965 | 0.811 |
| Nc1nccc(Oc2ccc(NC(=O)c3c[nH]cc(-c4ccc(F)cc4)c3=O)cc2F)c1Cl | 0.939 | 0.911 |
| CCN(c1cc(-c2ccc(CN3CCOCC3)cc2)cc(C(=O)NCc2c(C)cc(C)[nH]c2=O)c1C)C1CCOCC1 [Tazemetostat (EPZ-6438)] | 0.863 | 0.716 |

| Structure (SMILES) | normalised area under dose-response curve [1] | normalised area under dose-response curve [2] |
| --- | --- | --- |
| CC(C)(C)C(=O)N1N=CC[C@H]1c1ccccc1 [GSK963] | 0.939 | 0.857 |
| Cc1cn(CCN2CCN(c3ccccc3-c3cc(C#N)cc(C(=O)NCCCN4CCCC4)c3)CC2)c2ccccc12 [LLY-507] | 0.859 | 0.842 |
| CN[C@@H](C)C(=O)N[C@H](C(=O)N1CCC[C@H]1c1nc(C(=O)c2ccc(F)cc2)cs1)C1CCCCC1 [LCL161] | 0.585 | 0.922 |
| COC(=O)c1ccc([C@H]2c3[nH]c4ccccc4c3C[C@H](C(=O)OC)N2C(=O)CCl)cc1 [RSL3] | 0.465 | 0.175 |
| CCCS(=O)(=O)Nc1ccc(F)c(C(=O)c2c[nH]c3ncc(-c4ccc(Cl)cc4)cc23)c1F [Vemurafenib (PLX4032, RG7204)] | 0.813 | 0.883 |
| Oc1c2ccccc2c2c3c(cccc13)N=N2 | 0.881 | 1.04 |
| CNC(=O)c1cccc(-c2ccc3c(N4CCOC[C@@H]4C)nc(N4CCOC[C@@H]4C)nc3n2)c1 [Vistusertib (AZD2014)] | 0.723 | 0.765 |
| COc1cc2c(cc1OC(C)C)[C@H](c1ccc(Cl)cc1)N(c1ccc(N(C)C[C@H]3CC[C@H](N4CCN(C)C(=O)C4)CC3)cc1)C(=O)C2 [NVP-CGM097] | 0.988 | 0.72 |
| Oc1cc(CNC(=S)/C=C/c2cc(O)c(O)c(Br)c2)cc(O)c1O [NT157] | 0.943 | 0.886 |
| O=C(Cc1cccc(OC(F)(F)F)c1)Nc1ccc(CCCCc2nnc(NC(=O)Cc3ccccn3)s2)nn1 [CB-839] | 0.596 | 0.597 |
| COc1nc(C)cnc1NS(=O)(=O)c1cccnc1-c1ccc(-c2nnco2)cc1 [Zibotentan (ZD4054)] | 0.96 | 0.955 |
| CC(=O)O[C@H]1C(=O)[C@@]2(C)[C@H]([C@H](OC(=O)c3ccccc3)[C@]3(O)C[C@H](OC(=O)[C@H](O)[C@@H](NC(=O)c4ccccc4)c4ccccc4)C(C)=C1C3(C)C)[C@]1(OC(C)=O)CO[C@@H]1C[C@@H]2O [Paclitaxel] | 0.432 | 0.444 |
| O=C1NCCCc2c1oc1ccc(O)cc21 | 0.904 | 0.878 |
| COc1ccccc1C(=O)Nc1cc2c(cc1N1CCCC1)n(C)c(=O)n2C [PFI-4] | 0.955 | 0.787 |
| CCC1=C[C@@H]2CN(C1)Cc1c([nH]c3ccccc13)[C@@](C(=O)OC)(c1cc3c(cc1OC)N(C)[C@H]1[C@@](O)(C(=O)OC)[C@H](OC(C)=O)[C@]4(CC)C=CCN5CC[C@]31[C@@H]54)C2 [Vinorelbine Tartrate] | 0.546 | 0.338 |
| CC(=O)c1c(C)c2cnc(Nc3ccc(N4CCNCC4)cn3)nc2n(C2CCCC2)c1=O | 0.882 | 0.865 |
| Cc1cnc(-c2ccccc2C(C)C)nc1NCc1ccc(-n2ccnn2)cc1 [ML323] | 0.932 | 0.871 |
| CC(C)(O)CNc1nc(Nc2ccnc(C(F)(F)F)c2)nc(-c2cccc(C(F)(F)F)n2)n1 [Enasidenib (AG-221)] | 0.97 | 0.875 |
| COc1cc(Br)c(Nc2nc(-c3c(C)nc4ncccn34)cs2)c(Br)c1 [PTC-209 HBr] | 0.836 | 0.819 |
| CN(C)Cc1c(C(=O)NCCOc2ccc(C(=O)NO)cc2)oc2ccccc12 | 0.733 | 0.748 |
| O=c1cc(N2CCOCC2)oc2c1ccc1ccccc12 [NU7026] | 0.998 | 0.846 |
| CN1CCN(c2ccc(Nc3ncc4cc(C#N)c(=O)n(C5CCCC5)c4n3)cc2)CC1 | 0.98 | 0.852 |
| O=S(=O)(O)c1ccc2cc(N=Nc3cc(S(=O)(=O)O)c4cccnc4c3O)ccc2c1 | 0.938 | 0.831 |
